Assay results as given in US20250236619A1, “FUSED BICYCLIC COMPOUND CONTAINING PYRROLINONE” (CHIA TAI TIANQING PHARMACEUTICAL GROUP CO., LTD., priority 2022, published 2025).
Where two headings read alike, the source gives them in different places.

Key:
HPK1 kinase = HPK1 kinase (Homo sapiens (Human), UniProt Q92918); test: Assay for in vitro inhibitory activity against HPK1 kinase; type: biochemical; conditions: HPK1 1 ng/μL, ATP 1 mM, STK Substrate 1-biotin 500 nM
Protocol: Experimental Example 1: Assay for In Vitro Inhibitory Activity Against HPK1 Kinase A kinase buffer (Enzymatic buffer 5×) was diluted to 1×, and 10 mM MgCl2, 1 mM DTT, and 0.005% Tween 20 were added. A 100 ng/μL HPK1 (Life technology) stock solution was diluted with the kinase buffer to obtain a 1.67×, 1.67 ng/μL working solution (final concentration: 1 ng/μL), and the working solution was seeded in a 384-well plate at 6 μL/well. Different compounds dissolved in DMSO were added to the wells using a nanoliter pipettor to obtain final concentrations of the compounds of 1000 nM to 0.244 nM (4-fold serial dilution, 7 concentrations in total), and blank control wells (without enzyme) and negative control wells (with enzyme, plus vehicle DMSO) were set; the wells were set in duplicate. After the enzyme and the compounds were incubated at room temperature for 1 h, a 5×, 5 mM ATP dilution (final concentration: 1 mM) in the kinase buffer was mixed with a 5×, […] substrate (Cisbio, STK Substrate 1-biotin; final concentration: 500 nM) in equal volume, and the mixture was added to the plate at 4 µL/well. The plate was sealed with a film and then incubated at room temperature for 2 h. An assay antibody solution was prepared by mixing the antibody STK Antibody-cryptate (Cisbio, 5 μL/test) and a 4×, 500 nM Streptavidin-XL665 (Cisbio; final concentration: 125 nM) in equal volume and added to the plate at 10 μL/well. The plate was incubated at room temperature for 1 h. The signal values (excitation: […]) were measured using a PE Envision multimode microplate reader, and IC50 was calculated by four-parameter fitting.

[1] = test system: p-SLP76 phosphorylation of Jurkat cells; test: Assay for inhibitory activity against p-SLP76 phosphorylation of Jurkat cells; type: cell-based; conditions: stimulator CD3CD28, 30 min, read-out: IC50 (nM) for inhibition of p-SLP76 phosphorylation of Jurkat cells
Protocol: 2.1 Assay for Inhibitory Activity Against p-SLP76 Phosphorylation of Jurkat Cells
Jurkat cells in a good growth state were added to a centrifuge tube, centrifuged, and resuspended. The cell density was adjusted to 6.25×10^6 cells/mL, and the cells were seeded in a 384-well small-volume white plate at […]. Different compounds dissolved in DMSO were added to the wells using a nanoliter pipettor to obtain final concentrations of the compounds of 2500 nM to 10.29 nM, and a control was set; the wells were set in duplicate. After 1 h of cell culture, the stimulator CD3CD28 (manufacturer: stemcell, 4 μL) was added and the cells were incubated at 37° C. for 30 min. 3 μL of lysis buffer (manufacturer: BioAuxilium) was added to each well, and the plate was shaken at room temperature for 30 min. After the lysate was well mixed, 5 μL of pre-mixed antibody (manufacturer: BioAuxilium) in assay buffer was added and the plate was incubated overnight at room temperature. The signal values were measured on a PerkinElmer Envision multimode microplate reader (excitation: 320 nm, emission: 615 nm/665 nm), and IC50 was calculated by four-parameter filling.

Chain of HPK1 kinase (Q92918 whole entry): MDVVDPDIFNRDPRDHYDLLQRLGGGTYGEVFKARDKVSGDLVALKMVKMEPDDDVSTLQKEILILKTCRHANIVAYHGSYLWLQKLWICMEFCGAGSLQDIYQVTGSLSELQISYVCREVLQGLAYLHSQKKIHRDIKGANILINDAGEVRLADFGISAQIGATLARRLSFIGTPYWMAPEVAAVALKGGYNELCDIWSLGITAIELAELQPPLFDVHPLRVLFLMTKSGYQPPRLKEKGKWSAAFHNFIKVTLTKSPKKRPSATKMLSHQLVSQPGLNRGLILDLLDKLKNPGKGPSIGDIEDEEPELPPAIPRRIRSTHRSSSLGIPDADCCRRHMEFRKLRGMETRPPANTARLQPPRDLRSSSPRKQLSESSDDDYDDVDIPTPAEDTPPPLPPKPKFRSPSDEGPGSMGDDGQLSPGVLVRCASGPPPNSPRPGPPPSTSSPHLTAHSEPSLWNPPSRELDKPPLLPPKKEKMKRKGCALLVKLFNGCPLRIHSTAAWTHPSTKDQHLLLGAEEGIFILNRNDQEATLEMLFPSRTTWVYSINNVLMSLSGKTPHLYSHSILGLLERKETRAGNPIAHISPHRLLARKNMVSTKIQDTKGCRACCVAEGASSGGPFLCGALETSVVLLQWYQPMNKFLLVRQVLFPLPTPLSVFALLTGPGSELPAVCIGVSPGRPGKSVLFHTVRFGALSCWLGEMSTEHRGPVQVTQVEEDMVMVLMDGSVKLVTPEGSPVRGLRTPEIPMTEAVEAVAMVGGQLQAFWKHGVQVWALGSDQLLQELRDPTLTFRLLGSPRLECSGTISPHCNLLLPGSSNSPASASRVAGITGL

SMILES | IC50 (HPK1 kinase) [nM] | IC50 [1] [nM] | IC50 ([1]; Homo sapiens, 0.5 h) [nM]
CN(C)Cc1nc(Nc2ccc(-c3cnc4ccc5c(ccn5C)n34)c3c2C(=O)NC3)ccc1C1CCOCC1 [Compound I-32] | 4.4 | < 50 | 
CN(C)Cc1nc(Nc2ccc(-c3cnn4ccc5occc5c34)c3c2C(=O)NC3)ccc1N1CCN(C)C(=O)C1 [Compound I-76] |  |  | < 50
CN(C)Cc1nc(Nc2ccc(-c3ncnc4[nH]c5c(c34)CCC5)c3c2C(=O)NC3)ccc1C1CCOCC1 [Compound I-24] |  |  | 50 to 100
CN(C)Cc1nc(Nc2ccc(-c3nnc4ccc5c(n34)CCC5)c3c2C(=O)NC3)ccc1C1CCOCC1 [Compound I-18] | 9.8 |  | 
CN(C)Cc1nc(Nc2ccc(-c3cnn4c3CC3(CC3)C4)c3c2C(=O)NC3)ccc1N1CCN(C)C(=O)C1 [Compound I-75] | 3.4 | 50 to 100 | 
CN(C)Cc1nc(Nc2ccc(-c3cnn4ccc5occc5c34)c3c2C(=O)NC3)ccc1N1CCCC1=O [Compound I-51] | 5.8 | < 50 | 
CN(C)Cc1nc(Nc2cnc(-c3ccnc4c3c3c(n4C)CCC3)c3c2C(=O)NC3)ccc1N1CCOCC1 [Compound I-13] | 3.5 |  | 
CN(C)Cc1nc(Nc2cnc(-c3cnn4ccc5occc5c34)c3c2C(=O)NC3)ccc1C1CCOCC1 [Compound I-46] |  |  | < 50
CN(C)Cc1nc(Nc2ccc(-c3cnn4ccc5occc5c34)c3c2C(=O)NC3)ccc1C1CCN(C)C(=O)C1 (stereo not shown) [Compound I-60] | 2.8 |  | < 50
CN(C)Cc1nc(Nc2ccc(-c3cnn4ccc5occc5c34)c3c2C(=O)NC3)ccc1C1CCCO1 (stereo not shown) [Compound I-64] |  |  | < 50
CN(C)Cc1nc(Nc2ccc(-c3cnc4cnc5occc5n34)c3c2C(=O)NC3)ccc1C1CCN(C)C(=O)C1 (stereo not shown) [Compound I-61] |  |  | 50 to 100
CN(C)Cc1nc(Nc2ccc(-c3cnc4ccc5occc5n34)c3c2C(=O)NC3)ccc1C1CCOCC1 [Compound I-28] | 2 |  | < 50
CN(C)Cc1nc(Nc2cnc(-c3cnn4ccc5occc5c34)c3c2C(=O)NC3)ccc1N1CCOCC1 [Compound I-47] |  |  | < 50
CN(C)Cc1nc(Nc2ccc(-c3cnn4ccc5occc5c34)c3c2C(=O)NC3)ccc1N1CCN(C)C1=O [Compound I-49] | 6.1 | < 50 | 
CN(C)Cc1nc(Nc2ccc(-c3cnc4ccc5occc5n34)c3c2C(=O)NC3)ccc1C1(O)CCOCC1 [Compound I-45] | 3.4 |  | < 50
CN(C)Cc1nc(Nc2ccc(-c3cnc4cnc5occc5n34)c3c2C(=O)NC3)ccc1C1CCN(C)CC1 [Compound I-80] |  |  | < 50
CN(C)Cc1nc(Nc2ccc(-c3ccnc4c3c3c(n4C)CCC3)c3c2C(=O)NC3)ccc1N1CC[C@@H](O)C1 [Compound I-12] | 5.1 |  | 
CN(C)Cc1nc(Nc2ccc(-c3cnn4ccc5occc5c34)c3c2C(=O)NC3)ccc1-c1ccn(C)c(=O)c1 [Compound I-81] |  |  | < 50
CN(C)Cc1nc(Nc2ccc(-c3cnc4ccc5c(n34)OCC5)c3c2C(=O)NC3)ccc1C1CCOCC1 [Compound I-44] | 3.5 |  | < 50
CN(C)Cc1nc(Nc2ccc(-c3ccnc4c3c3c(n4C)CCC3)c3c2C(=O)NC3)ccc1C1CCOC1 (stereo not shown) [Compound I-8] | 3.1 |  | < 50
CN(C)Cc1nc(Nc2ccc(-c3cnc4ccc5c(n34)CCO5)c3c2C(=O)NC3)ccc1C1CCOCC1 [Compound I-35] |  |  | 50 to 100
CN(C)Cc1nc(Nc2ccc(-c3nnc4ccc5occc5n34)c3c2C(=O)NC3)ccc1C1CCOCC1 [Compound I-33] | 2.9 | < 50 | 
CN(C)Cc1nc(Nc2ccc(-c3ncnc4c3c3c(n4C)CCC3)c3c2C(=O)NC3)ccc1C1CCOCC1 [Compound I-20] | 3.2 |  | 
CN(C)Cc1nc(Nc2ccc(-c3ncnc4[nH]c5ccccc5c34)c3c2C(=O)NC3)ccc1C1CCOCC1 [Compound I-22] | 7.5 | 50 to 100 | 
CN(C)Cc1nc(Nc2cnc(-c3ccnc4c3c3c(n4C)CCC3)c3c2C(=O)NC3)ccc1C1CCOCC1 [Compound I-6] | 2.5 |  | < 50
